Literature values in patent US6583280B1, “Polyamine analogues having antiproliferative activity” (priority 2000, dated 2003).
Like-named read-outs stand apart in the source and are kept apart here. Each block holds one molecule with its values, some of them ahead of it.

Tests used:
[1] = tested on: L1210 murine leukemia cells
[2] = molecular target: polyamine transport system
[3] = liver and kidney
AdoMetDC = molecular target: T1, AdoMetDC (Homo sapiens, UniProt P17707); settings: inhibitor of AdoMetDC
T1 sequence (P17707 68-334 limits assumed): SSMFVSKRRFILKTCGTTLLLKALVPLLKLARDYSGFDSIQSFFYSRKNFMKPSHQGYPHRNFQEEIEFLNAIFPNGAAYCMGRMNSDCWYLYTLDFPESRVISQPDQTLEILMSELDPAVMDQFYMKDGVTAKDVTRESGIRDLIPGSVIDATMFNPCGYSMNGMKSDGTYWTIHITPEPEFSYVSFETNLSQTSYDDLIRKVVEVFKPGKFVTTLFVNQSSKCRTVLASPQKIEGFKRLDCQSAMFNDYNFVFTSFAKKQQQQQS
T1 sequence (P17707 1-67 limits assumed): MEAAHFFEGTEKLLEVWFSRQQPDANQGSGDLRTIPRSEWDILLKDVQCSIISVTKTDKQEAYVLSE

[4] = tested on: Trypanosoma brucei brucei
[5] = in vitro toxicity
SSAT [6] = molecular target: T2, SSAT (Homo sapiens, UniProt P21673); settings: multisubstrate inhibitor of SSAT
SSAT [7] = molecular target: T2, SSAT; settings: due to lack of uptake
SSAT [8] = tested on: SSAT
[9] = tested on: two human pancreatic ductal adenocarcinoma cell lines
[10] = tested on: human large cell carcinoma (LCLC); settings: 10 μM
[11] = tested on: human small cell lung carcinoma line (SCLC)
ODC = molecular target: T3, ODC (Homo sapiens, UniProt P11926)
T3 sequence (P11926 1-461): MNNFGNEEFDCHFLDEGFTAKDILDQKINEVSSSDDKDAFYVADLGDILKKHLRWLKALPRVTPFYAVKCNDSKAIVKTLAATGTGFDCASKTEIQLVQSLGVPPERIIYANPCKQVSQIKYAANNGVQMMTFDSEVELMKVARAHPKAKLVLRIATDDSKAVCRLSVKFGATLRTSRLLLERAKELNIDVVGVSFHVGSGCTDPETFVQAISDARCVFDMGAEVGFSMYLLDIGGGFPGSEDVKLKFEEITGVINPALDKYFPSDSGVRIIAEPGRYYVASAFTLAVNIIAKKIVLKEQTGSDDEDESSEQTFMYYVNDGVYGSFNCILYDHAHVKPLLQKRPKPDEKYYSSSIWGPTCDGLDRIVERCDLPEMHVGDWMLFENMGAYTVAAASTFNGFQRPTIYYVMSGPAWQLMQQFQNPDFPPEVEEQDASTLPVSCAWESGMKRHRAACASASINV

NMDA receptor = settings: for IC50: MK-801 binding
[12] = physiological pH
[13] = human, in vivo
recombinant NMDA = recombinant NMDA receptors
[14] = animal study
spermine synthase = molecular target: T4, spermine synthase (Homo sapiens, UniProt P52788); settings: multisubstrate adduct inhibitor, in vitro
T4 sequence (P52788 1-366): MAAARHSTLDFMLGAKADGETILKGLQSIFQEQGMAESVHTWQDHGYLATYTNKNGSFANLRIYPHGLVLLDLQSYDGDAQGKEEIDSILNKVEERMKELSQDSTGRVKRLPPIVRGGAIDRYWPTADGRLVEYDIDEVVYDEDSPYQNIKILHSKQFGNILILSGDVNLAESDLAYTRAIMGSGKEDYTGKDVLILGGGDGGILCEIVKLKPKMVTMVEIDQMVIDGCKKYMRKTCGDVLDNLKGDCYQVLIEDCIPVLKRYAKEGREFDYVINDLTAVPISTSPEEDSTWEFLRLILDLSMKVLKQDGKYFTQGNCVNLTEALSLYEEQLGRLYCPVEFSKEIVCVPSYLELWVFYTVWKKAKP

[15] = 96th, read-out: 96th IC50 toward L1210 cell growth
[16] = target not printed, read-out: Ki
[17] = L1210 murine leukemia cells, read-out: IC50
[18] = read-out: Ki value for the polyamine transport system

T2 sequence (P21673 whole entry, species assumed): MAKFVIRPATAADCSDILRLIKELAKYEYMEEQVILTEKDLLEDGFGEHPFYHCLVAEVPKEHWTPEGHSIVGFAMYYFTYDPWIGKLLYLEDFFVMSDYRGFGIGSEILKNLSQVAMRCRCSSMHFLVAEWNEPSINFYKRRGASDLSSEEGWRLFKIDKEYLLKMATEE

Molecule: CCNCC[C@@H](O)CNCCCCNC[C@H](O)CCNCC [(HO)2DEHPM]
IC50 [1, 15]: 0.05 µM | Ki [2, 16]: 1.8 µM | accumulation of drug and metabolites [3]: not observed

Molecule: CN(CC=CCN)CC1OC(n2cnc3c(N)ncnc32)C(O)C1O (stereo not drawn) [AbeAdo, 5′-{[(Z)-4-anino-2-butenyl]methylamino}-5′-deoxyadenosin]
Ki (AdoMetDC): 0.3 µM | potency relative to DFMO ([4]; Trypanosoma brucei brucei): at least 100 times | effect on infection ([4]; Trypanosoma brucei brucei and multi-drug-resistant Trypanosoma brucei rhodesiense infections in mice): cures

Molecule: NCCCCN(CCCN)Cc1ccc(B(O)O)cc1 [BBSPD-5]
IC50 [5]: 5000 µM

Molecule: CC(C)(COP(=O)(O)OP(=O)(O)OC[C@H]1O[C@@H](n2cnc3c(N)ncnc32)[C@H](O)[C@@H]1OP(=O)(O)O)[C@@H](O)C(=O)NCCC(=O)NCCSCC(=O)NCCCNCCCN [CNSA, N-[1-(S-coenzyme A)acetyl]-syn-norspermidine amide]
IC50 (SSAT [6]): 0.3 µM | activity in intact cells (SSAT [7]): devoid of activity in intact cells

Molecule: NCCC[C@](N)(C(=O)O)C(F)F [DFMO, α-difluoromethylornithine]
Ki (ODC; irreversible inhibitor of ODC): 40 µM | effect on polyamine pools (polyamine pools): depletes putricine and spermidine pools, but has little effect on Spermine pools

Molecule: c1cc(NCCCCNc2ccncc2)ccn1 [PYR (3,4,3)]
IC50 (NMDA receptor): 8 µM

Molecule: NCCCCNCCCN [spermidine]
nephrotoxicity relative to spermine [14]: approximately one-twentieth

Molecule: S-(-5′-deoxy-5′-adenosyl)-1,12-diamino-3-thio-9-azadodecane [AdoDATAD]
IC50 (spermine synthase): 20 µM

Now from value to molecule, other results behind:

IC50 [1, 15]: 0.05 µM | Ki [2, 16]: 1.4 µM
Molecule: CCNCCCCNCCCCNCCCCNCC [DEHSPM]
accumulation of drug and metabolites [3]: accumulate to toxic levels in the liver and kidney

IC50 [1, 17]: 1.3 µM | Ki [2, 18]: 17 µM
Molecule: CCNCCCNCCCNCCCNCC [DENSpm, N′,N″-bis ethylnorspermine]
SSAT up-regulation / stimulation (SSAT [8]): 15 fold | effect on polyamine pools (polyamine pools): deplete all three polyamine pools | antiproliferative activity [9]: great antiproliferative activity

IC50 [1, 17]: 0.18 µM | Ki [2, 18]: 1.6 µM
Molecule: CCNCCCNCCCCNCCCNCC [DESpm, N′,N″-bis-ethylspermine]
SSAT up-regulation / stimulation (SSAT [8]): 4.6 fold | cytotoxicity [10]: cytotoxic | induction of SSAT ([10]; time- and dose-dependent): above 1700 fold | induction of SSAT or cytotoxic effect [11]: no significant induction of SSAT or cytotoxic effect | effect on polyamine pools (polyamine pools): deplete all three polyamine pools

increase of MK-801 level (NMDA receptor; agonist): 100% | fraction in the 3+ catonic state [12]: 63.2%
Molecule: C(CNC1CCNCC1)CNC1CCNCC1 [PIP (3,3,3)]

Ki (ODC; putrescine analogue, target not given): 3 µM
Molecule: C#C[C@H](N)CC[C@@H](C)N [RR-MAP, (2R,5R)-6-heptyne-2,5-diamine]
toxicity in clinical trials [13]: myclosuppression and renal toxicity

IC50 (recombinant NMDA): 0.2 µM
Molecule: c1ccc(CNCCCCN(CCCNCc2ccccc2)Cc2ccccc2)cc1 [TB-3-4]

agonist concentration at NMDA receptor (NMDA receptor): ≥ 10 µM | IC50 (NMDA receptor): 80 µM
Molecule: NCCCCNCCCCNCCCCN [homospermine]
